Laboratory results: paper PMC6627609, “Targeting Quorum Sensing: High-Throughput Screening to Identify Novel LsrK Inhibitors” (International Journal of Molecular Sciences, 2019)
Structures can show the parent of a compound that is named as a salt.

These molecules were tested against LsrK (Salmonella typhimurium, UniProt Q8ZKQ6) (assay: biochemical). Conditions: not given.
Format: biochemical, S. typhimurium

Sequence of LsrK (Q8ZKQ6 whole entry): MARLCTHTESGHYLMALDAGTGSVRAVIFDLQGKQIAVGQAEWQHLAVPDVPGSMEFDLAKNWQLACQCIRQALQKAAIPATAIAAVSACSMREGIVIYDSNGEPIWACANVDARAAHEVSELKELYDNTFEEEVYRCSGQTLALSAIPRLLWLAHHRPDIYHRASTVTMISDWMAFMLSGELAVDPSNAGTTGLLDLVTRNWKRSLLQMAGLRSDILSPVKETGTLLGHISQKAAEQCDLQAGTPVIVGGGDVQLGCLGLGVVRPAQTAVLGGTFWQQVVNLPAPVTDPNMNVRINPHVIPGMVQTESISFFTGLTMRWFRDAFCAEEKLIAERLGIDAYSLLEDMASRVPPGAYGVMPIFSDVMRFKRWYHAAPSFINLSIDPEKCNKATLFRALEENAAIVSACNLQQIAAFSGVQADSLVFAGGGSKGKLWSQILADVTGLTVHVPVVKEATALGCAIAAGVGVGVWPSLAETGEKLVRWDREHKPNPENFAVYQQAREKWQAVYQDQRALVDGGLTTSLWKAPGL

Row | SMILES | inhibition at 50 µM [%] | IC50 [µM]
1 | O=C(O)CCc1nc(-c2ccccc2)c(-c2ccccc2)o1 [OXAPROZIN] | 13 | 
2 | CN(C(=O)CN(CCO)CC(=O)N(C)C(C)(C)Cc1ccccc1)C(C)(C)Cc1ccccc1 [OXETHAZAINE] | 0 | 
3 | COC(=O)Nc1nc2ccc([S+]([O-])c3ccccc3)cc2[nH]1 (stereo not drawn) [OXFENDAZOLE] | 27 | 
4 | CCCOc1ccc2nc(NC(=O)OC)[nH]c2c1 [OXIBENDAZOLE] | 2 | 
5 | NCCc1cc(O)c(O)cc1O [OXIDOPAMINE HYDROCHLORIDE] | 117 | 
6 | CCn1cc(C(=O)O)c(=O)c2cc3c(cc21)OCO3 [OXOLINIC ACID] | 1 | 
7 | CCCCC1C(=O)N(c2ccccc2)N(c2ccc(O)cc2)C1=O (stereo not drawn) [OXYPHENBUTAZONE] | 93 | 
8 | CC[N+](C)(CC)CCOC(=O)C(O)(c1ccccc1)C1CCCCC1 (stereo not drawn) [OXYPHENONIUM BROMIDE] | 4 | 
9 | CN(C)[C@@H]1C(O)=C(C(N)=O)C(=O)[C@@]2(O)C(O)=C3C(=O)c4c(O)cccc4[C@@](C)(O)[C@H]3[C@H](O)[C@@H]12 [OXYTETRACYCLINE] | 94 | 
10 | CC(=O)O[C@H]1C[C@@H]2CC[C@@H]3[C@H](CC[C@@]4(C)[C@H]3C[C@H]([N+]3(C)CCCCC3)[C@@H]4OC(C)=O)[C@@]2(C)C[C@@H]1[N+]1(C)CCCCC1 [PANCURONIUM BROMIDE] | 0 | 
11 | CC(C)(CO)[C@@H](O)C(=O)NCCC(=O)NCCSSCCNC(=O)CCNC(=O)[C@H](O)C(C)(C)CO [PANTETHINE] | 0 | 
12 | COc1ccnc(C[S+]([O-])c2nc3ccc(OC(F)F)cc3[nH]2)c1OC (stereo not drawn) [PANTOPRAZOLE] | 3 | 
13 | COc1ccc(Cc2nccc3cc(OC)c(OC)cc23)cc1OC [PAPAVERINE HYDROCHLORIDE] | 1 | 
14 | Oc1ccc(Cl)cc1 [PARACHLOROPHENOL] | 1 | 
15 | N=C1C=CC(=C(c2ccc(N)cc2)c2ccc(N)cc2)C=C1 [PARA[…]] | 138 | 
16 | NC[C@@H]1O[C@H](O[C@H]2[C@@H](O)[C@H](O[C@@H]3[C@@H](O)[C@H](N)C[C@H](N)[C@H]3O[C@H]3O[C@H](CO)[C@@H](O)[C@H](O)[C@H]3N)O[C@@H]2CO)[C@H](N)[C@@H](O)[C@@H]1O [PAROMOMYCIN SULFATE] | 3 | 
17 | Fc1ccc([C@@H]2CCNC[C@H]2COc2ccc3c(c2)OCO3)cc1 [PAROXETINE HYDROCHLORIDE] | 1 | 
18 | C=C1C(=O)O[C@H]2[C@H]1CC/C(C)=C/CC[C@@]1(C)O[C@@H]21 [PARTHENOLIDE] | 3 | 
19 | O=C1C=C2C(=CCOC2O)O1 (stereo not drawn) [PATULIN] | 99 | 
20 | CN1C(C)(C)CCCC1(C)C [PEMPIDINE TARTRATE] | 2 | 
21 | CC1(C)S[C@@H]2[C@H](NC(=O)Cc3ccccc3)C(=O)N2[C@H]1C(=O)O [PENICILLIN G POTASSIUM] | 4 | 
22 | C1CCc2nnnn2CC1 [PENTYLENETETRAZOL] | 0 | 
23 | C1CCC(C(CC2CCCCN2)C2CCCCC2)CC1 (stereo not drawn) [PERHEXILINE MALEATE] | 1 | 

Row | SMILES | inhibition at 50 µM [%] | IC50 [µM]
24 | N#Cc1ccc2c(c1)N(CCCN1CCC(O)CC1)c1ccccc1S2 [PERICIAZINE] | 4 | 
25 | CCC[C@H](N[C@@H](C)C(=O)N1[C@H](C(=O)O)C[C@@H]2CCCC[C@@H]21)C(=O)OCC [PERINDOPRIL ERBUMINE] | 15 | 
26 | CO[C@H]1[C@H](O)[C@H](O[C@H]2CC[C@@]3(C=O)[C@H](CC[C@@H]4[C@@H]3CC[C@]3(C)[C@@H](C5=CC(=O)OC5)CC[C@]43O)C2)O[C@@H](C)[C@@H]1O [PERUVOSIDE] | 1 | 
27 | NCC(=O)c1ccccc1 [PHENACYLAMINE HYDROCHLORIDE] | 1 | 
28 | [H]/N=C(/N)N/C(=N/[H])NCCc1ccccc1 [PHENFORMIN HYDROCHLORIDE] | 0 | 
29 | CN(C)CCC(c1ccccc1)c1ccccn1 (stereo not drawn) [PHENIRAMINE MALEATE] | 3 | 
30 | O=C1OC(c2ccc(O)cc2)(c2ccc(O)cc2)c2ccccc21 [PHENOLPHTHALEIN] | 0 | 
31 | CC(COc1ccccc1)N(CCCl)Cc1ccccc1 (stereo not drawn) [PHENOXYBENZAMINE HYDROCHLORIDE] | 1 | 
32 | CC(C)(N)Cc1ccccc1 [PHENTERMINE] | 15 | 
33 | Cc1ccc(N(CC2=NCCN2)c2cccc(O)c2)cc1 [PHENTOLAMINE HYDROCHLORIDE] | 0 | 
34 | CCCCC1C(=O)N(c2ccccc2)N(c2ccccc2)C1=O [PHENYLBUTAZONE] | 0 | 
35 | O=C(CCc1ccc(O)cc1)c1c(O)cc(O)cc1O [PHLORETIN] | 60 | 
36 | O=C(O)c1ccccc1C(=O)Nc1ccc(S(=O)(=O)Nc2nccs2)cc1 [PHTHALYLSULFATHIAZOLE] | 1 | 
37 | CNC(=O)Oc1ccc2c(c1)[C@]1(C)CCN(C)[C@@H]1N2C [PHYSOSTIGMINE SALICYLATE] | 1 | 
38 | CC(C)(O)[C@@H]1[C@H]2OC(=O)[C@@H]1[C@]1(O)C[C@H]3O[C@]34C(=O)O[C@H]2[C@]14C [PICROTIN] | 1 | 
39 | CN1CCC(=C2c3ccccc3Sc3ccccc32)CC1 [PIMETHIXENE MALEATE] | 0 | 
40 | CCc1ccc(CCOc2ccc(CC3SC(=O)NC3=O)cc2)nc1 (stereo not drawn) [PIOGLITAZONE HYDROCHLORIDE] | 0 | 
41 | O=C(O)/C=C/C=C/c1ccc2c(c1)OCO2 [PIPERIC ACID] | 0 | 
42 | O=C(/C=C/C=C/c1ccc2c(c1)OCO2)N1CCCCC1 [PIPERINE] | 1 | 
43 | O=C(O)c1ccc2c(c1)OCO2 [PIPERONYLIC ACID] | 1 | 
44 | CCn1cc(C(=O)O)c(=O)c2cnc(N3CCCC3)nc21 [PIROMIDIC ACID] | 19 | 
45 | O=C(O)[C@@H](O)[C@](O)(Cc1ccc(O)cc1)C(=O)O [PISCIDIC ACID] | 2 | 
46 | CC(C)=CCc1c2c(c3occ(-c4ccc(O)c(O)c4)c(=O)c3c1O)C=CC(C)(C)O2 [POMIFERIN] | 2 | 

Row | SMILES | inhibition at 50 µM [%] | IC50 [µM]
47 | C[n+]1ccccc1/C=N/O [PRALIDOXIME CHLORIDE] | 1 | 
48 | O=C(C1CCCCC1)N1CC(=O)N2CCc3ccccc3C2C1 (stereo not drawn) [PRAZIQUANTEL] | 0 | 
49 | CC(=O)OCC(=O)[C@@]1(O)CC[C@H]2[C@@H]3CCC4=CC(=O)C=C[C@]4(C)[C@H]3[C@@H](O)C[C@@]21C [PREDNISOLONE ACETATE] | 0 | 
50 | CC(=O)[C@H]1CC[C@H]2[C@@H]3CC=C4C[C@@H](OC(=O)CCC(=O)O)CC[C@]4(C)[C@H]3CC[C@]12C [PREGNENOLONE SUCCINATE] | 4 | 
51 | OC(CCN1CCCCC1)(c1ccccc1)c1ccccc1 [PRIDINOL METHANESULFONATE] | 1 | 
52 | COc1cc(NC(C)CCCN)c2ncccc2c1 (stereo not drawn) [PRIMAQUINE DIPHOSPHATE] | 89 | 
53 | COC(=O)[C@]1(C)CC[C@]2(C)CC[C@]3(C)C4=CC=C5C(=CC(=O)C(O)=C5C)[C@]4(C)CC[C@@]3(C)[C@@H]2C1 [PRISTIMERIN] | 7 | 
54 | OC(CCN1CCCC1)(c1ccccc1)C1CCCCC1 (stereo not drawn) [PROCYCLIDINE HYDROCHLORIDE] | 0 | 
55 | CN(C)CCCN1c2ccccc2Sc2ccccc21 [PROMAZINE HYDROCHLORIDE] | 3 | 
56 | CC(C)c1cccc(C(C)C)c1O [PROPOFOL] | 7 | 
57 | C=CC1=C(C)c2cc3[nH]c(cc4nc(cc5[nH]c(cc1n2)c(C)c5CCC(=O)O)C(CCC(=O)O)=C4C)c(C)c3C=C [PROTOPORPHYRIN IX] | 100 | 9
58 | CC1=CCc2c(cc3oc(C)cc(=O)c3c2O)OC1 [PTAEROXYLIN] | 1 | 
59 | COc1ccc(C[C@H](N)C(=O)N[C@H]2[C@@H](O)[C@H](n3cnc4c(N(C)C)ncnc43)O[C@@H]2CO)cc1 [PUROMYCIN HYDROCHLORIDE] | 0 | 
60 | O=C1c2ccccc2C(=O)c2c(O)c(O)cc(O)c21 [PURPURIN] | 45 | 
61 | O=c1c(O)cccc2cc(O)c(O)c(O)c12 [PURPUROGALLIN] | 89 | 
62 | CN1CCCN=C1/C=C/c1cccs1 [PYRANTEL PAMOATE] | 101 | 
63 | Cc1ncc(CSSCc2cnc(C)c(O)c2CO)c(CO)c1O [PYRITINOL] | 1 | 
64 | CC[C@@]1(O)C[C@H](O[C@H]2C[C@H](N(C)C)[C@H](O)[C@H](C)O2)c2c(cc3c(c2O)C(=O)c2c(O)ccc(O)c2C3=O)[C@H]1C(=O)OC [PYRROMYCIN] | 1 | 
65 | O=c1c(O)c(-c2ccc(O)c(O)c2)oc2cc(O)cc(O)c12 [QUERCETIN] | 22 | 
66 | C[C@@H]1O[C@@H](Oc2c(-c3ccc(O)c(O)c3)oc3cc(O)cc(O)c3c2=O)[C@H](O)[C@H](O)[C@H]1O [QUERCITRIN] | 2 | 
67 | CCN(CC)CCCC(C)Nc1c2ccc(Cl)cc2nc2ccc(OC)cc12 (stereo not drawn) [QUINACRINE HYDROCHLORIDE] | 3 | 

Same assay, conditions: 50 µM

Row | SMILES | Inhibition (%)
68 | CN1CCCN=C1/C=C/c1cccc(O)c1.O=C(O)c1cc2ccccc2c(Cc2c(O)c(C(=O)O)cc3ccccc23)c1O [OXANTEL PAMOATE] | 6
69 | COC[C@]12CN(C=O)[C@@H]3[C@@H]4[C@H](OC)[C@H]1[C@@]3([C@@H](OC)C[C@H]2O)[C@@H]1C[C@@]2(O)[C@H](OC(=O)c3ccccc3)[C@@H]1[C@]4(OC(C)=O)[C@@H](O)[C@@H]2OC [OXONITINE] | 0
70 | COc1cc2c(cc1-c1cc3cc4ccoc4cc3oc1=O)OCO2 [PACHYRRHIZIN] | 1
71 | CCn1cc(C(=O)O)c(=O)c2cc(F)c(N3CCN(C)CC3)cc21.CS(=O)(=O)O [PEFLOXACINE MESYLATE] | 2
72 | CC(=O)OCC(OC(C)=O)C(OC(C)=O)C(OC(C)=O)C(OC(C)=O)C(COC(C)=O)OC(C)=O (stereo not drawn) [PERSITOL HEPTAACETATE] | 3
73 | CC(=O)c1c(O)cc(O)cc1O [PHLORACETOPHENONE] | 1
74 | Cl.c1cnc(N2CCN(Cc3ccc4c(c3)OCO4)CC2)nc1 [PIRIBEDIL HYDROCHLORIDE] | 3
75 | C[C@]12C=CC(=O)C=C1CC[C@@H]1[C@@H]2[C@@H](O)C[C@@]2(C)[C@H]1CC[C@]2(O)C(=O)COP(=O)([O-])[O-].[Na+].[Na+] [PREDNISOLONE SODIUM PHOSPHATE] | 0
76 | CNCCCC1c2ccccc2C=Cc2ccccc21.Cl [PROTRYPTYLINE HYDROCHLORIDE] | 1
77 | O=c1cccc2ccc(O)c(O)c2c1O [PYROGALLIN] | 101
